Laboratory results published in ChEMBL document CHEMBL1201862, “PubChem BioAssay data set” (2004).
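Values below derive from 48-hour exposures of cells grown in 96-well plates, with endpoints linearly interpolated between the two concentrations bracketing the appropriate inhibition level. The concentration for 50% growth inhibition is given as GI50.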 Active and inactive are the calls of the source. Rule as the data show it: active = GI50 up to about 1.1 µM and inactive = higher.

What was measured:
Assay in all cases: growth of human tumour cells (NCI), 48 h
RXF 393 = tested on: RXF 393
NCI/ADR-RES = tested on: NCI/ADR-RES
UACC-62 = tested on: UACC-62
A549 = tested on: A549
KM12 = tested on: KM12
NCI-H226 = tested on: NCI-H226
MDA-MB-435 = tested on: MDA-MB-435
RPMI-8226 = tested on: RPMI-8226
COLO 205 = tested on: COLO 205
OVCAR-5 = tested on: OVCAR-5
ACHN = tested on: ACHN
LOX IMVI = tested on: LOX IMVI
NCI-H522 = tested on: NCI-H522
HOP-62 = tested on: HOP-62
HCT-116 = tested on: HCT-116
EKVX = tested on: EKVX
SR = tested on: SR
HT-29 = tested on: HT-29
786-0 = tested on: 786-0
OVCAR-4 = tested on: OVCAR-4

SMILES	GI50 (RXF 393)	GI50 (NCI/ADR-RES)	GI50 (UACC-62)	GI50 (A549)	GI50 (KM12)	GI50 (NCI-H226)	GI50 (MDA-MB-435)	GI50 (RPMI-8226)	GI50 (COLO 205)	GI50 (OVCAR-5)	GI50 (ACHN)	GI50 (LOX IMVI)	GI50 (NCI-H522)	GI50 (HOP-62)	GI50 (HCT-116)	GI50 (EKVX)	GI50 (SR)	GI50 (HT-29)	GI50 (786-0)	GI50 (OVCAR-4)
CCc1nc(N)nc(N)c1-c1ccc2c(c1)nnn2CCc1ccccc1	26.4 µM (inactive)	13.7 µM (inactive)	7.01 µM (inactive)	3.09 µM (inactive)	14.1 µM (inactive)	38.6 µM (inactive)	6.52 µM (inactive)	13.6 µM (inactive)	14.9 µM (inactive)	> 60.5 µM (inactive)	7.23 µM (inactive)	5.16 µM (inactive)	5.98 µM (inactive)	22.2 µM (inactive)	2.36 µM (inactive)	21.8 µM (inactive)	5.18 µM (inactive)	3.53 µM (inactive)	5.89 µM (inactive)	20.8 µM (inactive)
CC(C)=CCCC(C)CCOS(=O)C(F)(F)F (stereo not given)	1.89 µM (inactive)	4.16 µM (inactive)	8.81 µM (inactive)	22.9 µM (inactive)	88.7 µM (inactive)	20 µM (inactive)	4.18 µM (inactive)	29.4 µM (inactive)	4.7 µM (inactive)	11 µM (inactive)	11.4 µM (inactive)	16.3 µM (inactive)	1.71 µM (inactive)	70.1 µM (inactive)	12.6 µM (inactive)	10.4 µM (inactive)	1.92 µM (inactive)	5.12 µM (inactive)	> 100 µM (inactive)	6.59 µM (inactive)
O=C1OCC2OC(=O)c3cc(O)c(O)c(O)c3-c3c(O)c(O)c(O)c4c3C(=O)OC(C2OC(=O)c2cc(O)c(O)c(O)c2-c2c1cc(O)c(O)c2O)C1OC(=O)C2C4=C(O)C(=O)C23Oc2cc(O)c4c(c2[C@H]13)O[C@H](c1ccc(O)c(O)c1)[C@@H](O)C4 (stereo not given in full)	16.8 µM (inactive)	23.3 µM (inactive)	20.4 µM (inactive)	19.1 µM (inactive)	24.8 µM (inactive)	14.2 µM (inactive)	18.5 µM (inactive)	24.5 µM (inactive)	19.2 µM (inactive)	14.6 µM (inactive)	23 µM (inactive)	14.8 µM (inactive)	17.4 µM (inactive)	41.7 µM (inactive)	17.3 µM (inactive)	12.7 µM (inactive)	27.5 µM (inactive)	16.2 µM (inactive)	21.4 µM (inactive)	15.7 µM (inactive)
Nc1cc(C2CCCc3c2[nH]c2ccccc32)ccc1O (stereo not given)	55.8 µM (inactive)	22 µM (inactive)	10.8 µM (inactive)	24.6 µM (inactive)	20.1 µM (inactive)	55.3 µM (inactive)	12.3 µM (inactive)	0.271 µM (active)	45.4 µM (inactive)	24.1 µM (inactive)	18.5 µM (inactive)	16.4 µM (inactive)	20.1 µM (inactive)	74.6 µM (inactive)	20.3 µM (inactive)	44 µM (inactive)	4.48 µM (inactive)	23.4 µM (inactive)	15.3 µM (inactive)	16.9 µM (inactive)
Cc1ccc(C(=O)O)c(/C=C2\Cc3ccc(C)cc3C2=O)c1	42.3 µM (inactive)	71.8 µM (inactive)	69.2 µM (inactive)	91.2 µM (inactive)	61.4 µM (inactive)	28.2 µM (inactive)	38 µM (inactive)	19.5 µM (inactive)	51.4 µM (inactive)	28.4 µM (inactive)	55.2 µM (inactive)	33.3 µM (inactive)	96.8 µM (inactive)	44.2 µM (inactive)	44.2 µM (inactive)	98.9 µM (inactive)	32.5 µM (inactive)	34.8 µM (inactive)	62.2 µM (inactive)	50.5 µM (inactive)
